Patent US5081241A, “Spiro-pyridazines and analogs thereof useful as aldose reductase inhibitors” (American Home Products Corporation, priority 1990, dated 1992)

How the values were obtained:
[1] = target: T1, aldose reductase (Bos taurus, UniProt P16116); assay: in vitro aldose reductase inhibition (modified Hayman and Kinoshita procedure; enzyme from bovine lens); type: biochemical; settings: 10^-5
T1 construct: preparation of the enzyme from bovine lens; from tissue; host or cells: bovine lens
Description: (§1) (c) The polyol determination was performed by a modification of the procedure of M. Kraml and L. Cosyns, Clin. Biochem., 2, 373 (1969). Only two minor reagent changes were made: (a) the rinsing mixture was an aqueous 5% (w/v) trichloroacetic acid solution and (b) the stock solution was prepared by dissolving 25 mg of dulcitol in 100 mL of an aqueous trichloroacetic acid solution. [N.B.: For each experiment the average value found in the tissue from rats fed the glucose diet was subtracted from the individual values found in the corresponding tissue in galactose-fed rats to obtain the amount of polyol accumulated.] The aldose reductase inhibiting effects of the compounds of formula (I) were also tested by employing an in vitro testing procedure similar to that described by S. Hayman and J. H. Kinoshita, J. Biol. Chem., 240, 877 (1965). In the present case the procedure of Hayman and Kinoshita was modified in that the final chromatography step was omitted in the preparation of the enzyme from bovine lens.

[2] = system: accumulation of dulcitol in the lenses, sciatic nerves and diaphragm of rats fed galactose; assay: in vivo lowering of galactitol (dulcitol) accumulation in galactosemic rats; design: species or system male Sprague-Dawley rats
From the text: The aldose reductase inhibiting property of the compounds of this invention and the utilization of the compounds in preventing, diminishing and alleviating diabetic complications are demonstrable in experiments using galactosemic rats, see Dvornik et al., Science, 182, 1146 (1973). Such experiments are exemplified hereinbelow after the listing of the following general comments pertaining to these experiments:
(a) Four or more groups of six male rats, 50-70 g, Sprague-Dawley strain, were used. The first group, the control group, was fed a mixture of laboratory chow (rodent Laboratory Chow, Purina) and glucose at 20% (w/w %) concentration. An untreated galactosemic group was fed a similar diet in which galactose was substituted for glucose. The third group was fed a diet prepared by mixing a given amount of the test compound with the galactose containing diet. The concentration of galactose in the diet of the treated groups was the same as that for the untreated galactosemic group.
(b) After four days, the animals were killed by euthanization. Both the lens and sciatic nerve were removed, weighed and stored frozen for polyol determination.
as §1
The figures under L, N, and D represent the percentage decrease of dulcitol accumulation in the tissues of the lens, sciatic nerve, and diaphragm, respectively, for treated rats as compared to untreated rats.

[3] = feed or water, 55 mg/kg/day, 96 h

% Inhibition In Vitro [1] [%]	Structure (SMILES)	% Lowering Galacititol Accumulation In Vivo % (D) [2, 3] [%]	% Lowering Galacititol Accumulation In Vivo % (D) ([2]; diaphragm, dose 47 mg/kg/day in diet, 4 days, vs untreated galactosemic rats) [%]	% Lowering Galacititol Accumulation In Vivo % (L) ([2]; lens, dose 47 mg/kg/day in diet, 4 days, vs untreated galactosemic rats) [%]	% Lowering Galacititol Accumulation In Vivo % (D) ([2]; diaphragm, dose 25 mg/kg/day in diet, 4 days, vs untreated galactosemic rats) [%]
21	CN1NC(=O)C2(CC1=O)C(=O)N(Cc1ccc(Br)cc1F)C(=O)c1ccccc12 (centres unmarked) [R^1 = H, R^5 = H, 2-[(4-bromo-2-fluorophenyl)methyl]-1'-methylspiro[isoquinoline-4(1H),4'(1'H)-pyridazine]-1,3,3',6'(2H,2'H,5'H)-tetrone]	21	–	–	–
5	CN1C(=O)CC2(C(=O)N(Cc3ccc(Br)cc3F)C(=O)c3ccc(F)cc32)C(=O)N1C (centres unmarked) [R^1 = F, R^5 = CH3, 2-[(4-bromo-2-fluorophenyl)methyl]-6-fluoro-1',2'-dimethylspiro[isoquinoline-4(1H),4'(1'H)-pyridazine]-1,3,3',6'(2H,2'H,5'H)-tetrone]	–	59	18	–
6	CN1C(=O)CC2(C(=O)N(Cc3ccc(Br)cc3F)C(=O)c3ccccc32)C(=O)N1C (centres unmarked) [R^1 = H, R^5 = CH3, 2-[(4-bromo-2-fluorophenyl)methyl]-1',2'-dimethylspiro[isoquinoline-4(1H),4'(1'H)-pyridazine]-1,3,3',6'(2H,2'H,5'H)-tetrone]	82	–	–	48
